Reference: patent US20230416205A1, “COMPOUNDS, COMPOSITIONS, AND METHODS” (Denali Therapeutics Inc, priority 2020, published 2023)
Where two headings read alike, the source gives them in different places.

System: NLRP3
Experiment: IL-1β secretion assay in PMA-differentiated, LPS/nigericin-stimulated THP-1 cells (384-well, ELISA read-out)
Format: cell-based, human
Settings: Homo sapiens
How it was run: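 THP-1 cells differentiated with PMA (5 ng/mL, 40 h), primed in serum-free medium with 25 ng/mL LPS for 2 h, treated with compounds 1 h (0.5% DMSO), then stimulated with nigericin for 2 h at 37 °C. Supernatant IL-1β measured by ELISA; responses normalized to LPS+5 μM nigericin and LPS-only controls.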

[1] = THP-1, IL-1β secretion, PMA-differentiated THP-1 cells, LPS then nigericin stimulation, ELISA read at 450 nm, read-out: Activity
[2] = THP-1, Table 4, IL-1β secretion, LPS/nigericin-stimulated THP-1 cells, read-out: IC50

Row | SMILES | IC50 [1] | IC50 [2]
1 | O=C(CN1C[C@]2(C[C@H]2F)c2cc(C3(F)CC3)ccc2C1=O)Nc1ncc(Cl)cn1 [Example 250] | < 10000 nM | 14 nM
2 | O=C(CN1CC2(CC2)c2cc(C3(F)CC3)ccc2C1=O)Nc1ncc(F)cn1 [Example 255, 2-[6-(1-fluorocyclopropyl)-1-oxospiro[3H-isoquinoline-4,1′-cyclopropane]-2-yl]-N-(5-fluoropyrimidin-2-yl)acetamide] | < 10000 nM | 148 nM
3 | O=C(CN1CC2(CC2)c2cc(Br)ccc2C1=O)Nc1ncc(C2CCC2)cn1 [Example 256, 2-(6-bromo-1-oxospiro[3H-isoquinoline-4,1′-cyclopropane]-2-yl)-N-(5-cyclobutylpyrimidin-2-yl)acetamide] | < 10000 nM | 395 nM
4 | Cn1cc(-c2cnc(NC(=O)CN3CC4(CC4)c4cc(Br)ccc4C3=O)nc2)cn1 [Example 257, 2-(6-bromo-1-oxospiro[3H-isoquinoline-4,1′-cyclopropane]-2-yl)-N-[5-(1-methylpyrazol-4-yl)pyrimidin-2-yl]acetamide] | < 10000 nM | 392 nM
5 | O=C(CN1CC2(CC2)c2cc(Br)ccc2C1=O)Nc1ncc(C2CCOC2)cn1 (stereo not drawn) [Example 258, 2-(6-bromo-1-oxospiro[3H-isoquinoline-4,1′-cyclopropane]-2-yl)-N-[5-(oxolan-3-yl)pyrimidin-2-yl]acetamide] | < 10000 nM | 526 nM
6 | Cc1nc(NC(=O)CN2CC3(CC3)c3cc(Br)ccc3C2=O)ncc1C#N [Example 259, 2-(6-bromo-1-oxospiro[3H-isoquinoline-4,1′-cyclopropane]-2-yl)-N-(5-cyano-4-methylpyrimidin-2-yl)acetamide] | < 10000 nM | 437 nM
7 | O=C(CN1CC2(CC2)c2cc(Br)ccc2C1=O)Nc1nc2cnccn2n1 [Example 260, 2-(6-bromo-1-oxospiro[3H-isoquinoline-4,1′-cyclopropane]-2-yl)-N-([1,2,4]triazolo[1,5-a]pyrazin-2-yl)acetamide] | < 10000 nM | 205 nM
8 | O=C(CN1CC2(CC2)c2cc(Br)ccc2C1=O)Nc1nc2cc(Cl)ccn2n1 [Example 261, 2-(6-bromo-1-oxospiro[3H-isoquinoline-4,1′-cyclopropane]-2-yl)-N-(7-chloro-[1,2,4]triazolo[1,5-a]pyridin-2-yl)acetamide] | < 10000 nM | 224 nM
9 | COc1ccc2nc(NC(=O)CN3CC4(CC4)c4cc(Br)ccc4C3=O)nn2c1 [Example 262, 2-(6-bromo-1-oxospiro[3H-isoquinoline-4,1′-cyclopropane]-2-yl)-N-(6-methoxy-[1,2,4]triazolo[1,5-a]pyridin-2-yl)acetamide] | < 10000 nM | 253 nM
10 | O=C(CN1CC2(CC2)c2cc(Br)ccc2C1=O)Nc1nc2ccc(F)cn2n1 [Example 263, 2-(6-bromo-1-oxospiro[3H-isoquinoline-4,1′-cyclopropane]-2-yl)-N-(6-fluoro-[1,2,4]triazolo[1,5-a]pyridin-2-yl)acetamide] | < 10000 nM | 281 nM
11 | O=C(CN1CC2(CC2)c2cc(Br)ccc2C1=O)Nc1nc2ccc(Cl)cn2n1 [Example 264, 2-(6-bromo-1-oxospiro[3H-isoquinoline-4,1′-cyclopropane]-2-yl)-N-(6-chloro-[1,2,4]triazolo[1,5-a]pyridin-2-yl)acetamide] | < 10000 nM | 312 nM
12 | O=C(CN1CC2(CC2)c2cc(Br)ccc2C1=O)Nc1nc2cc(C(F)(F)F)ccn2n1 [Example 265, 2-(6-bromo-1-oxospiro[3H-isoquinoline-4,1′-cyclopropane]-2-yl)-N-[7-(trifluoromethyl)-[1,2,4]triazolo[1,5-a]pyridin-2-yl]acetamide] | < 10000 nM | 335 nM
13 | O=C(CN1CC2(CC2)c2cc(Br)ccc2C1=O)Nc1nc2ccc(F)cc2o1 [Example 267, 2-(6-bromo-1-oxospiro[3H-isoquinoline-4,1′-cyclopropane]-2-yl)-N-(6-fluoro-1,3-benzoxazol-2-yl)acetamide] | < 10000 nM | 359 nM
14 | O=C(CN1CC2(CC2)c2cc(Br)ccc2C1=O)N[C@@H]1CCCN(C2CC2)C1 [Example 268, 2-(6-bromo-1-oxospiro[3H-isoquinoline-4,1′-cyclopropane]-2-yl)-N-[(3R)-1-cyclopropylpiperidin-3-yl]acetamide] | < 10000 nM | 192 nM
15 | O=C(CN1CC2(CC2)c2cc(Br)ccc2C1=O)Nc1ncc(I)cn1 [Example 269, 2-(6-bromo-1-oxospiro[3H-isoquinoline-4,1′-cyclopropane]-2-yl)-N-(5-iodopyrimidin-2-yl)acetamide] | < 10000 nM | 87 nM
16 | O=C(CN1CC2(CC2)c2cc(Br)ccc2C1=O)Nc1ncc(OC(F)F)cn1 [Example 270, 2-(6-bromo-1-oxospiro[3H-isoquinoline-4,1′-cyclopropane]-2-yl)-N-[5-(difluoromethoxy)pyrimidin-2-yl]acetamide] | < 10000 nM | 286 nM
17 | O=C(CN1C[C@]2(C[C@H]2F)c2cc(Br)ccc2C1=O)Nc1nc2ccccn2n1 [Example 271] | < 10000 nM | 29 nM
18 | N#Cc1cnc(NC(=O)CN2C[C@]3(C[C@H]3F)c3cc(Br)ccc3C2=O)nc1 [Example 272] | < 10000 nM | 14 nM
19 | C=C(F)c1ccc2c(c1)[C@@]1(C[C@H]1F)CN(CC(=O)Nc1ncc(F)cn1)C2=O [Example 273] | < 10000 nM | 59 nM
20 | Cc1cnc(NC(=O)CN2C[C@]3(C[C@H]3F)c3cc(Br)ccc3C2=O)nc1 [Example 274] | < 10000 nM | 23 nM
21 | N#Cc1cnc(NC(=O)CN2C[C@]3(C[C@H]3F)c3cc(Br)ccc3C2=O)c(F)c1 [Example 275, 2-[(2′r,4s)-6-bromo-2′-fluoro-1-oxospiro[3H-isoquinoline-4,1′-cyclopropane]-2-yl]-N-(5-cyano-3-fluoropyridin-2-yl)acetamide] | < 10000 nM | 70 nM
22 | O=C(CN1C[C@]2(C[C@H]2F)c2cc(Cl)ccc2C1=O)Nc1ncc(F)cn1 [Example 276] | < 10000 nM | 79 nM
23 | C[C@@H](F)[C@H]1CN(CC(=O)Nc2ncc(F)cn2)C(=O)c2ccc(Br)cc21 [Example 294, 2-[(4r)-6-bromo-4-[(1r)-1-fluoroethyl]-1-oxo-3,4-dihydroisoquinolin-2-yl]-N-(5-fluoropyrimidin-2-yl)acetamide] | < 10000 nM | 203 nM
24 | O=C(CN1CC(C(F)(F)F)c2cc(I)ccc2C1=O)Nc1ncc(F)cn1 (stereo not drawn) [Example 301, N-(5-fluoropyrimidin-2-yl)-2-[6-iodo-1-oxo-4-(trifluoromethyl)-3,4-dihydroisoquinolin-2-yl]acetamide] | < 10000 nM | 27 nM
25 | C#Cc1ccc2c(c1F)C1(CC1)CN(CC(=O)Nc1ncc(F)cn1)C2=O [Example 302, 2-(6-ethynyl-5-fluoro-1-oxospiro[3H-isoquinoline-4,1′-cyclopropane]-2-yl)-N-(5-fluoropyrimidin-2-yl)acetamide] | < 10000 nM | 539 nM
26 | O=C(CN1CC2(CC2)c2c(ccc(C3(F)CC3)c2F)C1=O)Nc1ncc(F)cn1 [Example 307, 2-[5-fluoro-6-(1-fluorocyclopropyl)-1-oxospiro[3H-isoquinoline-4,1′-cyclopropane]-2-yl]-N-(5-fluoropyrimidin-2-yl)acetamide] | – | 898 nM
